Measurements reported in patent publication US20080269304A1, “Parakeratosis inhibitor, pore-shrinking agent and skin preparation for external use” (priority 2002, published 2008).

What was measured:
[1] = tested on: parakeratosis caused by oleic acid; assay: Test on parakeratosis inhibitory action (oleic acid applied on the back of a hairless mouse); assay type: in vivo; conditions: for Incidence of Parakeratosis (Average of 4 mice): 100 μL, 3 days, grades of 1 to 4; for Effect on parakeratosis caused by oleic acid (in words): summary of Tables 2 and 3, hairless mouse
Protocol: An aqueous solution containing 3% each of GABA, glycine, D-glutamic acid and L-glutamic acid was prepared, and pH of each solution was adjusted to nutrality, if necessary. An aqueous solution containing 10 mM each of GABA, bicuculline methobromide (antagonist to GABA receptor type A), MK-801, muscimol, isogubacin, ATP, suramin, PPADS and TNP-ATP was also prepared.
Thereafter, 100 μL of sample solution or reference solution was applied. This procedure was repeated for 3 days, and the keratin layer on the back was peeled with a tape. The nucleus of the keratin layer was stained with hematoxylin, the number of nuclear cells was counted under a microscope, and the results were evaluated in four grades of 1 to 4.

pores = assay: Test on pore-shrinking action (replicas of cheek pores); conditions: for Decision of Replica of Pores (Average of n = 5): 3% sample solution on cheek twice a day for 1 month, difference of scores (13 grades of 1 to 13) before and after the test; for Pore-shrinking effect (in words): summary of Table 4, 3% solutions
Epidermal keratinocyte = assay: Excitatory action test of cells with oleic acid (intracellular calcium, fura-2-AM); assay type: cell-based; conditions: summary of Table 1
Protocol: Epidermal keratinocyte was cultivated on an appropriate medium, for example, KGM medium, according to the conventional method. The cultured cells were seeded on a cover glass chamber and cultivated there a day before measuring calcium ions. An appropriate buffer solution, for example BSS (balanced salt solution) and a calcium sensitive fluorescent pigment (fura-2-AM) were added in the cultured cell at a concentration of about 2 μM on the next day, and the fluorescent pigment was allowed to be incorporated into the cell by incubating under an appropriate condition (for example 30 minutes at 37° C.). After completing intake of the pigment, the same buffer solution (fresh BSS) was added. […] The same measurement was carried out by adding only the same buffer solution (BSS). The fluorescence intensity at 340 nm was divided by the fluorescence intensity at 380 nm for determining the calcium concentration according to the conventional method.

[2] = Application Test of 3% Oleic Acid Solution, sample 10 mM, water reference 2.0
[3] = Application Test of 30% Oleic Acid Solution, sample 3% solution, water reference 2.5

Row | Compound | Incidence of Parakeratosis (Average of 4 mice) [1, 2] | Effect on parakeratosis caused by oleic acid (in words) [1] | Decision of Replica of Pores (Average of n = 5) (pores) | Pore-shrinking effect (in words) (pores) | Incidence of Parakeratosis (Average of 4 mice) [1, 3] | Excitatory function of the cell (in words) (Epidermal keratinocyte)
1 | Nc1ncnc2c1ncn2[C@@H]1O[C@H](COP(=O)(O)OP(=O)(O)OP(=O)(O)O)[C@@H](O)[C@H]1O [ATP] | 2.3 | worsens parakeratos is | – | – | – | –
2 | N[C@H](CCC(=O)O)C(=O)O [D-Glutamic Acid, D-glutamic acid] | – | improved parakeratosis | −0.4 | excellent pore-shrinking effects | 2.0 | –
3 | NCCCC(=O)O [GABA, γ-aminobutyric acid] | 1.5 | improved parakeratosis | −1.0 | excellent pore-shrinking effects | 1.5 | –
4 | NCC(=O)O [Glycine, glycine] | – | improved parakeratosis | −1.2 | excellent pore-shrinking effects | 1.3 | –
5 | O=C(O)C1=CCNCC1 [Isogubacin, isogubacin] | 1.3 | improved parakeratosis | – | – | – | –
6 | N[C@@H](CCC(=O)O)C(=O)O [L-Glutamic Acid, L-glutamic acid] | – | worsens parakeratosis | – | – | 3.0 | –
7 | C[C@]12N[C@H](Cc3ccccc31)c1ccccc12 [MK-801, dizocylpin] | 1.0 | improved parakeratosis | – | – | – | –
8 | NCc1cc(=O)[nH]o1 [Muscimol, muscimol] | 1.3 | improved parakeratosis | – | – | – | –
9 | CCCCCCCC/C=C\CCCCCCCC(=O)O [Oleic Acid, oleic acid] | – | – | – | – | – | has an excitatory function
10 | Cc1nc(N=Nc2ccc(S(=O)(=O)O)cc2S(=O)(=O)O)c(COP(=O)(O)O)c(C=O)c1O [PPADS, pyridoxal phosphate-6-azophenyl-2′,4′-disulfonic acid] | 1.8 | improved parakeratosis | – | – | – | –
11 | Cc1ccc(C(=O)Nc2ccc(S(=O)(=O)O)c3cc(S(=O)(=O)O)cc(S(=O)(=O)O)c23)cc1NC(=O)c1cccc(NC(=O)Nc2cccc(C(=O)Nc3cc(C(=O)Nc4ccc(S(=O)(=O)O)c5cc(S(=O)(=O)O)cc(S(=O)(=O)O)c45)ccc3C)c2)c1 [Suramin, suramin] | 1.5 | improved parakeratosis | – | – | – | –
12 | C[N+]1(C)CCc2cc3c(cc2[C@H]1[C@@H]1OC(=O)c2c1ccc1c2OCO1)OCO3.[Br-] [bicuculline methobromide] | – | inhibited parakeratosis inhibitory action | – | – | – | –
13 | trinitrophenyl-ATP [TNP-ATP] | 1.5 | improved parakeratosis | – | – | – | –
